The supplement of paper PMC6045584
± gives the standard deviation of the averaged measurements.

Assays:
[1] = compound: CCc1cc(Nc2nccc(-c3c(-c4ccc(OC)c(C(=O)Nc5c(F)cccc5F)c4)nc4ccccn34)n2)c(OC)cc1N1CCC(N2CCN(S(C)(=O)=O)CC2)CC1; assay: surviving fraction relative to DMSO-only wells; higher = less growth inhibition; conditions: exposure time: 5 days
Method in brief: (§1)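 Log-phase tumour cell lines, 250–500 cells per well in 384-well plates, received inhibitors at 0.5, 1, 5, 10, 50, 100, 500 and 1000 nM continuously for five days, starting 24 hours after seeding. Viability was quantified with CellTiter-Glo luminescence and normalised to the median of DMSO-only wells to give surviving fraction. Three screens were run per line, and a line stayed in only with replicate Pearson r >0.7 and median Z' >0.3.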

IMATINIB = compound: Cc1ccc(NC(=O)c2ccc(CN3CCN(C)CC3)cc2)cc1Nc1nccc(-c2cccnc2)n1 [IMATINIB]; assay: as above; conditions: exposure time: 5 days
Method in brief: as §1

Row | Test System | surviving fraction ([1]; 0.5 nM) | surviving fraction ([1]; 1 nM) | surviving fraction ([1]; 5 nM) | surviving fraction ([1]; 10 nM) | surviving fraction ([1]; 50 nM) | surviving fraction ([1]; 100 nM) | surviving fraction ([1]; 500 nM) | surviving fraction ([1]; 1000 nM) | surviving fraction (IMATINIB; 1 nM) | surviving fraction (IMATINIB; 5 nM) | surviving fraction (IMATINIB; 10 nM) | surviving fraction (IMATINIB; 50 nM) | surviving fraction (IMATINIB; 100 nM) | surviving fraction (IMATINIB; 500 nM) | surviving fraction (IMATINIB; 1000 nM) | surviving fraction (IMATINIB; 0.5 nM)
1 | HS57T BREAST | 0.949 ± 0.082 | 1.01 ± 0.063 | 1.05 ± 0.021 | 1.05 ± 0.018 | 1.02 ± 0.052 | 1.06 ± 0.085 | 0.992 ± 0.036 | 0.945 ± 0.024 | 1 ± 0.062 | 1.14 ± 0.016 | 1.14 ± 0.024 | 1.17 ± 0.069 | 1.09 ± 0.056 | 1.04 ± 0.034 | 1.01 ± 0.093 | 
2 | G292 BONE | 1.03 ± 0.072 | 0.969 ± 0.032 | 1 ± 0.061 | 1 ± 0.023 | 1.03 ± 0.041 | 0.994 ± 0.013 | 1.018 ± 0.0097 | 0.975 ± 0.035 | 1.038 ± 0.0097 | 1.09 ± 0.024 | 1.05 ± 0.024 |  | 1.04 ± 0.028 | 0.862 ± 0.029 | 0.923 ± 0.065 | 1.01 ± 0.037
3 | CCK81 LARGE INTESTINE |  |  |  |  |  |  |  |  | 0.815 ± 0.09 | 0.81 ± 0.038 | 0.795 ± 0.048 | 0.706 ± 0.049 | 0.843 ± 0.11 | 0.741 ± 0.078 | 0.778 ± 0.047 | 0.813 ± 0.083
4 | HMLE3 BREAST | 0.947 ± 0.037 | 0.931 ± 0.073 | 1 ± 0.013 | 1.09 ± 0.038 | 0.967 ± 0.066 | 0.979 ± 0.081 | 0.908 ± 0.049 | 0.834 ± 0.062 | 1.14 ± 0.11 | 1.11 ± 0.08 | 1.21 ± 0.062 | 1.14 ± 0.047 | 1.23 ± 0.13 | 1.16 ± 0.054 | 1.01 ± 0.089 | 1.08 ± 0.038
5 | HMT3552 BREAST | 1.14 | 1.08 | 1.08 | 1.1 | 1.17 | 1.18 | 1.21 | 1.3 | 0.967 ± 0.041 | 1.04 ± 0.032 | 0.988 ± 0.057 | 1.15 ± 0.061 | 1.17 ± 0.062 | 1.18 ± 0.047 | 1.16 ± 0.076 | 1.01 ± 0.039
6 | HCC70 BREAST | 1.08 ± 0.059 | 0.975 ± 0.12 | 1.07 ± 0.039 | 1.09 ± 0.1 | 1.08 ± 0.051 | 1.12 ± 0.096 | 1.03 ± 0.13 | 0.994 ± 0.052 | 1.08 ± 0.071 | 1.04 ± 0.04 | 1.1 ± 0.054 | 1.17 ± 0.11 | 1.15 ± 0.043 |  | 1.45 ± 0.69 | 1.116 ± 0.0051
7 | HS578T BREAST | 0.891 ± 0.1 | 0.952 ± 0.025 | 0.965 ± 0.12 | 0.902 ± 0.042 | 0.803 ± 0.064 | 0.88 ± 0.14 | 0.931 ± 0.022 | 0.776 ± 0.078 | 1.01 ± 0.11 | 1.02 ± 0.12 | 1.14 ± 0.27 | 1.21 ± 0.18 | 1.07 ± 0.1 | 1.1 ± 0.16 | 1.2 ± 0.17 | 1.23 ± 0.27
8 | HCC38 BREAST | 1.09 ± 0.18 | 1.19 ± 0.28 | 1.1 ± 0.23 | 1.02 ± 0.23 | 0.855 ± 0.2 | 1.07 ± 0.17 | 0.923 ± 0.12 | 0.881 ± 0.13 | 1.13 ± 0.13 | 1.39 ± 0.13 | 1.3 ± 0.27 | 1.31 ± 0.15 | 1.46 ± 0.21 | 1.08 ± 0.12 | 1.1 ± 0.029 | 1.32 ± 0.15
